Results from ChEMBL document CHEMBL3045494, “Inhibitory effect and structureactivity relationship of some Biginelli-type pyrimidines against HSV-1” (Med Chem Res, 2013).
Values belong to the molecule of their own block, whether it stands above or below them. The source made the active and inactive calls. The calls are words filed in the database; no cut-off is given here.

Key:
[1] = system: Vero; test: (§1) Cytotoxicity against Chlorocebus aethiops (African green monkey) Vero cells after 72 hr by XTT assay; assay type: cell-based; conditions: chlorocebus sabaeus, vero, 72 h
[2] = as §1; assay type: cell-based; conditions: chlorocebus sabaeus, Vero cells
[3] = system: Human alphaherpesvirus 1; test: Antiviral activity against Human herpesvirus 1 strain KOS infected Vero cells at 20 umol/L incubated for 2 hr prior to infection measured after 72 hr by plaque reduction assay; assay type: functional, organism-based
[4] = Selectivity index, ratio of CC25 for African green monkey Vero cells to IC25 for Herpes simplex virus 1 KOS; assay type: toxicity, cell-based; conditions: read-out: Selectivity Index
[5] = system: Human alphaherpesvirus 1; test: Antiviral activity against Human herpesvirus 1 strain KOS infected Vero cells at 20 umol/L incubated at 4 hr post-infection measured after 68 hr by plaque reduction assay; assay type: functional, organism-based
[6] = Therapeutic index, ratio of CC50 for African green monkey Vero cells to IC50 for Herpes simplex virus 1 KOS; assay type: cell-based; conditions: read-out: Ratio CC50/IC50
[7] = system: Human alphaherpesvirus 1; test: Antiviral activity against Human herpesvirus 1 strain KOS infected Vero cells at 20 umol/L incubated at 2 hr post-infection measured after 70 hr by plaque reduction assay; assay type: functional, organism-based
[8] = system: Human alphaherpesvirus 1; test: Antiviral activity against Human herpesvirus 1 strain KOS infected Vero cells after 72 hr by plaque reduction assay; assay type: functional, organism-based; conditions: Human alphaherpesvirus 1, KOS, Vero, 72 h; for IC50: read-out: IC50
[9] = system: Human alphaherpesvirus 1; test: Antiviral activity against Human herpesvirus 1 strain KOS infected Vero cells at 20 umol/L incubated for 4 hr prior to infection measured after 72 hr by plaque reduction assay; assay type: functional, organism-based
[10] = system: Human alphaherpesvirus 1; test: Antiviral activity against Human herpesvirus 1 strain KOS infected Vero cells at 20 umol/L incubated immediately after infection for 72 hr by plaque reduction assay; assay type: functional, organism-based

- IC50 [8]: 0.9 µM
Structure (SMILES): COC(=O)C1=C(C)NC(=O)NC1c1ccc(Br)cc1 (configuration not stated)
- CC25 [1]: 12.3 µM
- CC50 at 72 h [2]: 100 µM
- Activity [3]: inactive
- selectivity ratio [4]: 123
- Activity [5]: Active
- selectivity ratio [6]: 111
- Activity [7]: Active
- IC25 [8]: 0.1 µM
- Activity [9]: inactive
- Activity [10]: inactive

- IC50 [8]: > 100 µM
Structure (SMILES): CC1=C(C(=O)Nc2ccccn2)C(c2cccs2)NC(=O)N1 (configuration not stated)
- CC25 [1]: > 100 µM
- CC50 at 72 h [2]: > 100 µM
- selectivity ratio [4]: > 1
- selectivity ratio [6]: > 1
- IC25 [8]: 97.7 µM
